From the NIST ThermoML archive (doi:10.1021/je400473z)
Numbers after ± are expanded uncertainties.

Assay: wn = mass fraction of the nth substance listed
Conditions: 101 kPa, Liquid, Vibrating tube method

In the case of `CC#N` [acetonitrile] + O, the mass density (293.15 K, w1 = 0.1) is reported as 983.2 ± 2 kg/m3, the mass density (293.15 K, w1 = 0.2) is reported as 964.2 ± 2 kg/m3 and the mass density (293.15 K, w1 = 0.4) is reported as 918.7 ± 2 kg/m3. The mass density (303.15 K, w1 = 0.1) was 978.7 ± 2 kg/m3, the mass density (303.15 K, w1 = 0.2) was 958.2 ± 2 kg/m3 and the mass density (303.15 K, w1 = 0.4) was 910.9 ± 2 kg/m3. The mass density (313.15 K, w1 = 0.1) was 973.5 ± 2 kg/m3, the mass density (313.15 K, w1 = 0.2) was 951.6 ± 2 kg/m3 and the mass density (313.15 K, w1 = 0.4) was 902.8 ± 2 kg/m3.
